Patent publication US8367830B2, “Methods for the identification of phosphatidylinositol kinase interacting molecules and for the purification of phosphatidylinositol kinase proteins” (Cellzome AG, priority 2009, dated 2013)

How the values were obtained:
AurA = biological target: T1, AurA (Homo sapiens, UniProt O14965); assay: Kinobeads competition binding, immobilized CZC31207, HeLa/placenta lysate mix; settings: 10 μM free compound; mixed HeLa and placenta cell lysates
T1 construct: endogenous in cells; host or cells: mixed lysate of HeLa cells and placenta
T1 sequence (O14965 whole entry): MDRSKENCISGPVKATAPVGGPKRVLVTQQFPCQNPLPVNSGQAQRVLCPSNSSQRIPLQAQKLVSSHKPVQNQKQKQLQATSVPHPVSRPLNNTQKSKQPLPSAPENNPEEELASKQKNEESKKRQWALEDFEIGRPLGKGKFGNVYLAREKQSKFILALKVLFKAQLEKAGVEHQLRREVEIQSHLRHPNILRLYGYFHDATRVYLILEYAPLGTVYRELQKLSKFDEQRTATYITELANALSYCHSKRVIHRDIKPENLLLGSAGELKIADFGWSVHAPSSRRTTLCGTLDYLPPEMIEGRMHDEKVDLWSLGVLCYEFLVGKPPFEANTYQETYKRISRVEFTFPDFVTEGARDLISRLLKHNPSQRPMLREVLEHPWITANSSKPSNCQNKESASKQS
Method: (§1) To the first aliquot of cell lysate 10 μM of the free compound (CZC31207) was added and allowed to bind to proteins in the lysate. Then the affinity matrix with the immobilized compound (Example 1) was added to capture proteins that were not interacting with the previously added free compound. Beads were separated from the lysate and bead bound proteins were eluted in SDS sample buffer and subsequently separated by SDS-Polyacrylamide gel electrophoresis (FIG. 4). Suitable gel bands were cut out and subjected to in-gel proteolytic digestion with trypsin. The second lysate aliquot was processed identically, however no free compound was added (DMSO solvent control). Peptides originating from samples 1 and 2 were labeled with iTRAQ reagents (iTRAQ 115 and iTRAQ 117) and the combined samples were analyzed with a nano-flow liquid chromatography system coupled online to a tandem mass spectrometer (LC-MS/MS) experiment followed by iTRAQ reporter ion quantification in the MS/MS spectra (Ross et al., 2004. Mol. Cell. Proteomics 3(12):1154-1169). Further experimental protocols can be found in WO2006/134056 and a previous publication (Bantscheff et al., 2007. Nature Biotechnology 25, 1035-1044).
(§2) Cells were homogenized in a Potter S homogenizer in lysis buffer: 50 mM Tris-HCl, 0.8% NP40, 5% glycerol, 150 mM NaCl, 1.5 mM MgCl2, 25 mM NaF, 1 mM sodium vanadate, 1 mM DTT, pH 7.5. One complete EDTA-free tablet (protease inhibitor cocktail, Roche Diagnostics, 1 873 580) per 25 ml buffer was added. The material was dounced 20 times using a mechanized POTTER S, transferred to 50 ml falcon tubes, incubated for 30 minutes rotating at 4° C. and spun down for 10 minutes at 20,000×g at 4° C. (10,000 rpm in Sorvall SLA600, precooled). The supernatant was transferred to an ultracentrifuge (UZ)-polycarbonate tube (Beckmann, 355654) and spun for 1 hour at 145.000×g at 4° C. (40.000 rpm in Ti50.2, precooled). The supernatant was transferred again to a fresh 50 ml falcon tube, the protein concentration was determined by a Bradford assay (BioRad) and samples containing 50 mg of protein per aliquot were prepared. The samples were immediately used for experiments or frozen in liquid nitrogen and stored frozen at −80° C.
(§3) Sepharose-beads with the immobilized compound (100 μl beads per pull-down experiment) were equilibrated in lysis buffer and incubated with a cell lysate sample containing 50 mg of protein on an end-over-end shaker (Roto Shake Genie, Scientific Industries Inc.) for 2 hours at 4° C. Beads were collected, transferred to Mobicol-columns (MoBiTech 10055) and washed with 10 ml lysis buffer containing 0.4% NP40 detergent, followed by 5 ml lysis buffer containing 0.2% detergent. To elute bound proteins, 60 μl 2×SDS sample buffer was added to the column. The column was incubated for 30 minutes at 50° C. and the eluate was transferred to a siliconized microfuge tube by centrifugation. Proteins were then alkylated with 108 mM iodoacetamid. Proteins were then separated by SDS-Polyacrylamide electrophoresis (SDS-PAGE).
(§4) Gel-separated proteins were digested in-gel essentially following a previously described procedure (Shevchenko et al., 1996, Anal. Chem. 68:850-858). Briefly, gel-separated proteins were excised from the gel using a clean scalpel, destained twice using 100 μl 5 mM triethylammonium bicarbonate buffer (TEAB; Sigma T7408) and 40% ethanol in water and dehydrated with absolute ethanol. Proteins were subsequently digested in-gel with porcine trypsin (Promega) at a protease concentration of 10 ng/μl in 5 mM TEAB. Digestion was allowed to proceed for 4 hours at 37° C. and the reaction was subsequently stopped using 5 μl 5% formic acid.
(§5) Gel plugs were extracted twice with 20 μl 1% formic acid and three times with increasing concentrations of acetonitrile. Extracts were subsequently pooled with acidified digest supernatants and dried in a vacuum centrifuge. […]

Erk2 = biological target: T2, Erk2 (Homo sapiens, UniProt P28482); assay: as above; settings: 10 μM free compound; mixed HeLa and placenta cell lysates
T2 construct: endogenous in cells; host or cells: mix of HeLa cell lysate and placenta lysate
T2 sequence (P28482 whole entry): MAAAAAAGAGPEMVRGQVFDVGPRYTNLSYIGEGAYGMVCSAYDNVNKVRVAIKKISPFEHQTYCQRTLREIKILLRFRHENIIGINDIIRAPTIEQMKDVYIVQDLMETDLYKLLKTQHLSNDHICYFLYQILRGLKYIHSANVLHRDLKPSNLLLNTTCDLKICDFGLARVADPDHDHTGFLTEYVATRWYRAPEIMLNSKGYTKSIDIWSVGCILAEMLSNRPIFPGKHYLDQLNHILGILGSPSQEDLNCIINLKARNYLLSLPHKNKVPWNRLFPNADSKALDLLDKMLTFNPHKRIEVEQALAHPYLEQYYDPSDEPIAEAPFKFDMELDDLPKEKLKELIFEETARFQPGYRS
Method: as §1, §2, §3, §4, §5

JNK2 = biological target: T3, JNK2 (Homo sapiens, UniProt P45984); assay: as above; settings: 10 μM free compound; mixed HeLa and placenta cell lysates
T3 construct: endogenous in cells; host or cells: mixed lysate of HeLa cells and placenta
T3 sequence (P45984 whole entry): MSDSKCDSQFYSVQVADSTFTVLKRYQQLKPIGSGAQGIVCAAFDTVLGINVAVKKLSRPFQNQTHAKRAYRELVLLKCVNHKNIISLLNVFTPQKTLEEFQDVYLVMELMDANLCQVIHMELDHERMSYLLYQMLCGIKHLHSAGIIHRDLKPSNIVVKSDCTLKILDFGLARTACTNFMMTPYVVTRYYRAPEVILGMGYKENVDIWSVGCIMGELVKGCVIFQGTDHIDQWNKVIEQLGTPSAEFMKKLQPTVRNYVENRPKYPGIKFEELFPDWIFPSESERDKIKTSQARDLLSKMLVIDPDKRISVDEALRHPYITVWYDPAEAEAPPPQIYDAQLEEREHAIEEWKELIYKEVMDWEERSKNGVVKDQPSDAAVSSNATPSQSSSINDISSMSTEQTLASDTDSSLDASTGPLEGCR
Method: as §1, §2, §3, §4, §5

MAP3K6 = biological target: T4, MAP3K6 (Homo sapiens, UniProt O95382); assay: as above; settings: 10 μM free compound; mixed HeLa and placenta cell lysates
T4 construct: endogenous in cells; host or cells: mixed lysate of HeLa cells and placenta
T4 sequence (O95382 whole entry): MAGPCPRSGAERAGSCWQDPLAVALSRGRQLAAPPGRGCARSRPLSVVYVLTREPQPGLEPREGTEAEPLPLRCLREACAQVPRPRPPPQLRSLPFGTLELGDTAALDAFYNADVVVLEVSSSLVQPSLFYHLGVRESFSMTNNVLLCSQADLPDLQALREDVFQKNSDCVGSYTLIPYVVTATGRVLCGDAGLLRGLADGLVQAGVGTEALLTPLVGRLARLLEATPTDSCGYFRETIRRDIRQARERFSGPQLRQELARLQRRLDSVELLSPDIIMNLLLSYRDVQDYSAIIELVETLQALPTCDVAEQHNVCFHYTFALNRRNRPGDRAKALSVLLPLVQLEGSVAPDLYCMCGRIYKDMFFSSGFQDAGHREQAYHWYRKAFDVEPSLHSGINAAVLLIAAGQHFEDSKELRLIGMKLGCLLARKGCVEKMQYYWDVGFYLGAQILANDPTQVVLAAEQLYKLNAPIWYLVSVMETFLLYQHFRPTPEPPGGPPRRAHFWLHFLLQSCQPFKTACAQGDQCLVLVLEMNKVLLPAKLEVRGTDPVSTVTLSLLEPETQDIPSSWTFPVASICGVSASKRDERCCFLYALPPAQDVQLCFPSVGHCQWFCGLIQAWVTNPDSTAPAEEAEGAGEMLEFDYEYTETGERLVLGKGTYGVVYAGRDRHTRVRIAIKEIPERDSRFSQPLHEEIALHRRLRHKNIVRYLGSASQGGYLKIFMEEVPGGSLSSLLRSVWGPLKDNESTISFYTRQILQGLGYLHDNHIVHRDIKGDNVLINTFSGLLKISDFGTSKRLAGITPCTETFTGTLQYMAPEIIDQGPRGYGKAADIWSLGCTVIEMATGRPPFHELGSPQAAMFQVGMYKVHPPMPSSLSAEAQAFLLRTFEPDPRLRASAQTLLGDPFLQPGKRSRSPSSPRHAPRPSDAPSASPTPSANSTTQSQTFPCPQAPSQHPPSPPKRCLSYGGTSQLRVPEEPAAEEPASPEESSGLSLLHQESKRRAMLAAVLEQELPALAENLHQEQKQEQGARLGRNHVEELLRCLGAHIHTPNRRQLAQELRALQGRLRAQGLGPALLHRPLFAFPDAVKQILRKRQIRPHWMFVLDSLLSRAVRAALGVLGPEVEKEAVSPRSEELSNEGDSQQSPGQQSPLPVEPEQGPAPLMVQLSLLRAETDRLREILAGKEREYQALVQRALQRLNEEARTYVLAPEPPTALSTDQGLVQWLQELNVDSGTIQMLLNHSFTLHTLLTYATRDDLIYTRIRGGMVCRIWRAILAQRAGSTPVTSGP
Method: as §1, §2, §3, §4, §5

MLKL = biological target: T5, MLKL (Homo sapiens, UniProt Q8NB16); assay: as above; settings: 10 μM free compound; mixed HeLa and placenta cell lysates
T5 construct: endogenous in cells; host or cells: mix of HeLa cell lysate and placenta lysate
T5 sequence (Q8NB16 whole entry): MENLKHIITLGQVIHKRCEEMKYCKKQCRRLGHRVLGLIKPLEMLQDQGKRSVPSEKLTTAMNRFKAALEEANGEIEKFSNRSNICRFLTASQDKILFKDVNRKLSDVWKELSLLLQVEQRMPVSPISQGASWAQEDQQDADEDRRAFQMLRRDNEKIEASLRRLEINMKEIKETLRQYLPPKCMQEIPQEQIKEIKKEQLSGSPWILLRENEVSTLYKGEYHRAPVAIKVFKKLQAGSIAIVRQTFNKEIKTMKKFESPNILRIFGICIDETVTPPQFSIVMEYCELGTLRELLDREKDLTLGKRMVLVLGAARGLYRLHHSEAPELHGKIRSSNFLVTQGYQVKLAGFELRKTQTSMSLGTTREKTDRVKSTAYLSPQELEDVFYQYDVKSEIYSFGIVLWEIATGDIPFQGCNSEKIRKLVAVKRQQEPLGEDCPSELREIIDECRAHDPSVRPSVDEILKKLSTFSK
Method: as §1, §2, §3, §4, §5

PIK3Ca = biological target: T6, PIK3Ca (Homo sapiens, UniProt P42336); assay: as above; settings: 10 μM free compound; mixed HeLa and placenta cell lysates
T6 construct: endogenous in cells; host or cells: mix of HeLa cell lysate and placenta lysate
Method: as §1, §2, §3, §4, §5

TNK1 = biological target: T7, TNK1 (Homo sapiens, UniProt Q13470); assay: as above; settings: 10 μM free compound; mixed HeLa and placenta cell lysates
T7 construct: endogenous in cells; host or cells: mix of HeLa cell lysate and placenta lysate
T7 sequence (Q13470 whole entry): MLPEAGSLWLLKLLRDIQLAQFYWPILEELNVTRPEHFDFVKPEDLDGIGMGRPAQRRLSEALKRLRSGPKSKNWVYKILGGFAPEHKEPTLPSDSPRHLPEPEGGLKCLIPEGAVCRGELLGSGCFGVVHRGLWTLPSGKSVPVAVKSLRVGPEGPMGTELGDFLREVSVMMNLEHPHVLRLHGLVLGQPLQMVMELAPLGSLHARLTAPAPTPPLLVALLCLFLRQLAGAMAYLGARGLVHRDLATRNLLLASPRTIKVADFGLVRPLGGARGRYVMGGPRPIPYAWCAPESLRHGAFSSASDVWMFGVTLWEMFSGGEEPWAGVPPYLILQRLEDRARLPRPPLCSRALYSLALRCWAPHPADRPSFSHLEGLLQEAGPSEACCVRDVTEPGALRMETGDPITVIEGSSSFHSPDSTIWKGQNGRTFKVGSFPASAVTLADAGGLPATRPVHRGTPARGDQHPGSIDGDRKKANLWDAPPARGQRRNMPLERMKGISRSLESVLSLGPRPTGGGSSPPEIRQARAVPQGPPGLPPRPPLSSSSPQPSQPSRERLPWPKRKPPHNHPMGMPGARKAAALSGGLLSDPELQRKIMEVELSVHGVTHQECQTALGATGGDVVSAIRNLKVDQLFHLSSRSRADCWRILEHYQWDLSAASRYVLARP
Method: as §1, §2, §3, §4, §5

FRAP = FRAP (Homo sapiens, UniProt P42345); assay: Kinobeads competition binding, immobilized CZC31207, Jurkat/Ramos lysate mix; parameters: endogenous in cells; settings: 10 μM free compound; mix of Jurkat and Ramos cell lysates
Method: (§6) To the first aliquot of cell lysate 10 μM of the free compound CZC31207 was added and allowed to bind to proteins in the lysate. Then the affinity matrix with the immobilized compound was added to capture proteins that were not interacting with the previously added free compound. Beads were separated from the lysate and bead bound proteins were eluted in SDS sample buffer and subsequently separated by SDS-Polyacrylamide gel electrophoresis (FIG. 5). Suitable gel bands were cut out and subjected to in-gel proteolytic digestion with trypsin. The second lysate aliquot was processed identically, however no free compound was added (DMSO solvent control). Peptides originating from samples 1 and 2 were labeled with iTRAQ reagents (iTRAQ 114 and iTRAQ 116) and the combined samples were analyzed with a nano-flow liquid chromatography system coupled online to a tandem mass spectrometer (LC-MS/MS) experiment followed by iTRAQ reporter ion quantification in the MS/MS spectra as described in Example 2.
(§7) Jurkat cells (ATCC number T1B-152) and Ramos cells (ATCC number CRL-1596) were either obtained from an external supplier (CIL SA, Mons, Belgium) or grown in one litre Spinner flasks (Integra Biosciences, #182101) in suspension in RPMI 1640 medium (Invitrogen, #21875-034) supplemented with 10% Fetal Bovine Serum (Invitrogen, #10270-106) at a density between 0.2×10^6 and 1.0×10^6 cells/ml. Cells were harvested by centrifugation, washed once with 1×PBS buffer (Invitrogen, #14190-094) and cell pellets were frozen in liquid nitrogen and subsequently stored at −80° C.
(§8) The identified kinases are shown in Table 5 including the percent competition values for the sample to which 10 μM free compound had been added. In total of 20 different kinases were identified and competed by different degrees.

NEK2 = NEK2 (Homo sapiens, UniProt P51955); assay: as above; parameters: endogenous in cells; settings: 10 μM free compound; mix of Jurkat and Ramos cell lysates
Chain of NEK2 (P51955 whole entry): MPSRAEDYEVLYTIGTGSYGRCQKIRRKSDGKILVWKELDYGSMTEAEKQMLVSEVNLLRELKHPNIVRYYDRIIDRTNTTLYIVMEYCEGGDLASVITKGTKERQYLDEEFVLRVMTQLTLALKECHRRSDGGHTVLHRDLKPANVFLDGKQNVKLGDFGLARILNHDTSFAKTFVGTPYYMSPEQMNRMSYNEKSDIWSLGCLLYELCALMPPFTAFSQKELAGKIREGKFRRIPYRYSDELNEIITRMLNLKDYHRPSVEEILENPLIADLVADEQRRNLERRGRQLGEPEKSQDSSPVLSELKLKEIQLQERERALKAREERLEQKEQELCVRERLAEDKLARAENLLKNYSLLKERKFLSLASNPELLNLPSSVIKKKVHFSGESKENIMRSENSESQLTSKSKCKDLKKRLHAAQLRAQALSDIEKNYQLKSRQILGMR
Method: as §6, §7, §8

Compound: CC(C)NS(=O)(=O)c1cncc(-c2ccc3nc(NC(=O)NCCN)nn3c2)c1 [CZC31207, 5-(2-(3-(2-aminoethyl)ureido)-[1,2,4]triazolo[1,5-a]pyridin-6-yl)-N-isopropylpyridine-3-sulfonamide]
- Competition % AurA (AurA): 12.8%
- Competition % Erk2 (Erk2): −2.9%
- Competition % JNK2 (JNK2): 24.6%
- Competition % MAP3K6 (MAP3K6): 10.3%
- Competition % MLKL (MLKL): 34.2%
- Competition % PIK3Ca (PIK3Ca): 68.6%
- Competition % TNK1 (TNK1): −1.9%
- Competition % FRAP (FRAP): −87.1%
- Competition % NEK2 (NEK2): 17%
